The supplement of paper PMC10307832

Assays:
Experiment in all cases: relative viability (nuclei count vs DMSO), 5 days (fraction); higher = more cells survive
[1] = compound: CC1=NN=C(O1)C2=NN=C(C=C2)N3CCC(CC3)OC4=C(C=CC(=C4)F)Cl + C[C@@H](Oc1cc(-c2cnn(C3CCNCC3)c2)cnc1N)c1c(Cl)ccc(F)c1Cl [Crizotinib] (partner 1 µM)
In short: (§1)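 Five library-drug doses in √10 steps were combined with a fixed anchor-drug dose, or a single drug was given alone, by pin tool to lung cancer cell lines in 1536-well plates the day after seeding. Nuclei were stained and counted after 5 days. Relative viability is the nuclei count in treated wells over that in vehicle wells, taken as the median of duplicate plates.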

[2] = compound: CC1=NN=C(O1)C2=NN=C(C=C2)N3CCC(CC3)OC4=C(C=CC(=C4)F)Cl + CC1(C)CCC(c2ccc(Cl)cc2)=C(CN2CCN(c3ccc(C(=O)NS(=O)(=O)c4ccc(N[C@H](CCN5CCOCC5)CSc5ccccc5)c(S(=O)(=O)C(F)(F)F)c4)cc3)CC2)C1 [Navitoclax] (partner 0.5 µM)
In short: as §1

Tosedostat + Tozasertib = compound: CC(C)C[C@@H](C(=O)N[C@H](C(=O)OC1CCCC1)c1ccccc1)[C@H](O)C(=O)NO [Tosedostat] + Cc1cc(Nc2cc(N3CCN(C)CC3)nc(Sc3ccc(NC(=O)C4CC4)cc3)n2)n[nH]1 [Tozasertib] (partner 0.1 µM)
In short: as §1

[3] = compound: CC1=NN=C(O1)C2=NN=C(C=C2)N3CCC(CC3)OC4=C(C=CC(=C4)F)Cl + Nc1nc2[nH]cc(CCc3ccc(C(=O)N[C@@H](CCC(=O)O)C(=O)O)cc3)c2c(=O)[nH]1 [Pemetrexed] (partner 0.2 µM)
In short: as §1

Cell Line | relative viability ([1]; first compound 0.253 µM) | relative viability ([1]; first compound 0.8 µM) | relative viability ([1]; first compound 2.53 µM) | relative viability ([1]; first compound 8 µM) | relative viability ([2]; first compound 0.253 µM) | relative viability ([2]; first compound 0.8 µM) | relative viability ([2]; first compound 2.53 µM) | relative viability ([2]; first compound 8 µM) | relative viability (Tosedostat + Tozasertib; first compound 0.02 µM) | relative viability (Tosedostat + Tozasertib; first compound 0.06325 µM) | relative viability (Tosedostat + Tozasertib; first compound 0.2 µM) | relative viability (Tosedostat + Tozasertib; first compound 0.6325 µM) | relative viability (Tosedostat + Tozasertib; first compound 2 µM) | relative viability ([3]; first compound 0.253 µM) | relative viability ([3]; first compound 0.8 µM) | relative viability ([3]; first compound 2.53 µM) | relative viability ([3]; first compound 8 µM)
NCI-H1944 | 0.448 | 0.54 | 0.566 | 0.529 | 0.637 | 0.665 | 0.733 | 0.672 | 0.244 | 0.244 | 0.23 | 0.256 | 0.22 | 0.372 | 0.328 | 0.493 | 0.369
EPLC-272H | 0.877 |  | 0.926 | 1.03 | 0.935 |  | 1.11 | 1.01 | 0.7 | 0.172 | 0.16 | 0.124 | 0.107 | 0.313 | 0.339 | 0.285 | 0.371
NCI-H2023 | 0.453 | 0.493 | 0.455 | 0.441 | 0.486 | 0.557 | 0.565 | 0.442 | 0.378 | 0.319 | 0.35 | 0.291 | 0.169 | 0.188 | 0.189 | 0.235 | 0.182
NCI-H838 | 0.643 | 0.679 | 0.731 | 0.683 | 0.959 | 0.954 | 1.05 | 0.979 | 0.273 | 0.262 | 0.305 | 0.283 | 0.255 | 0.235 | 0.251 | 0.215 | 0.23
NCI-H647 | 0.664 | 0.691 | 0.726 | 0.528 | 0.744 | 0.704 | 0.821 | 0.679 | 0.37 | 0.262 | 0.339 | 0.175 | 0.367 | 0.11 | 0.158 | 0.13 | 0.111
NCI-H1437 | 0.605 | 0.506 | 0.55 | 0.535 | 0.571 | 0.66 | 0.564 | 0.46 | 0.403 | 0.395 | 0.389 | 0.337 | 0.166 | 0.24 | 0.282 | 0.232 | 0.218
NCI-H3122 | 0.3 | 0.303 | 0.318 | 0.359 | 0.564 | 0.612 | 0.691 | 0.46 | 0.413 | 0.4 | 0.393 | 0.388 | 0.306 | 0.138 | 0.142 | 0.16 | 0.143
PC-14 | 0.747 | 0.636 | 0.713 | 0.739 | 0.742 | 0.717 | 0.719 | 0.702 | 0.586 | 0.562 | 0.52 | 0.51 | 0.399 | 0.139 | 0.117 | 0.153 | 0.121
SK-MES-1 | 0.773 | 0.807 | 0.81 | 0.724 | 0.995 | 1.04 | 1.03 | 0.929 | 1.01 | 0.822 | 0.95 | 0.801 | 0.61 | 0.681 | 0.853 | 0.828 | 0.628
